Laboratory results as given in USH1923H, “Herbicidal (oxaalkyl) phenyl-substituted heterocycles” (FMC Corporation, priority 1998, dated 2000).

Legend:
johnsongrass [1] = experiment: preemergence herbicidal activity on johnsongrass; format: in vivo; settings: Sorghum halepense, pre-emergence, 0.3 Kg/Ha, after 12-17 days, read-out: PREEMERGENCE HERBICIDAL ACTIVITY (% CONTROL) SORHA
Experimental: (§1) The (oxaalkyl)phenyl-substituted heterocycles of this invention were tested for pre- and postemergence herbicidal activity using a variety of crops and weeds. The test plants included soybean (Glycine max var. Winchester),field corn (Zea mays var. Pioneer 3732), wheat (Triticum aestivum var. Lew), morningglory (Ipomea lacunosa or Ipomea hederacea), […] (Abutilon theophrasti), green foxtail (Setaria viridis), Johnsongrass (Sorghum halepense), blackgrass (Aloepecurus myosuroides), common chickweed (Stellaria media), and common cocklebur (Xanthium strumarium L.).
(§2) For preemergence testing, two disposable fiber flats (8 cm×15 cm×25 cm) for each rate of application of each candidate herbicide were filled to an approximate depth of 6.5 cm with steam-sterilized sandy loam soil. The soil was leveled and impressed with a template to provide five evenly spaced furrows 13 cm long and 0.5 cm deep in each flat. Seeds of soybean, wheat, corn, green foxtail, and johnsongrass were planted in the furrows of the first flat, and seeds of velvetleaf, morningglory, common chickweed, cocklebur, and blackgrass were planted in the furrows of the second flat. The five-row template was employed to firmly press the seeds into place. A topping soil of equal portions of sand and sandy loam soil was placed uniformly on top of each flat to a depth of approximately 0.5 cm. Flats for postemergence testing were prepared in the same manner except that they were planted 9-14 days prior to the preemergence flats and were placed in a greenhouse and watered, thus allowing the seeds to germinate and the foliage to develop.
(§3) In both pre- and postemergence tests, a stock solution of the candidate herbicide was prepared by dissolving 0.27 g of the compound in 20 mL of water/acetone (50/50) containing 0.5% v/v sorbitan monolaurate. For an application rate of 3000 g/ha of herbicide a 10 mL portion of the stock solution was diluted with water/acetone (50/50) to 45 mL.
(§4) The preemergence flats were initially subjected to a light water spray. The four flats were placed two by two along a conveyor belt (i.e., the two preemergence followed by the two postemergence flats). The conveyor belt fed under a spray nozzle mounted about ten inches above the postemergent foliage. The preemergent flats were elevated on the belt so that the soil surface was at the same level below the spray nozzle as the foliage canopy of the postemergent plants. The spray of herbicidal solution was commenced and once stabilized, the flats were passed under the spray at a speed to receive a coverage equivalent of 1000 L/ha. At this coverage the application rates are those shown in the above table for the individual herbicidal solutions. The preemergence flats were watered immediately thereafter, placed in the greenhouse and watered regularly at the soil surface. The postemergence flats were immediately placed in the green-house and not watered until 24 hours after treatment with the test solution. Thereafter they were regularly watered at ground level. After 12-17 days the plants were examined and the phytotoxicity data were recorded.
(§5) Phytotoxicity data were taken as percent control. Percent control was by a method similar to the 0 to 1 00 rating system disclosed in "Research Methods in Weed Science," 2nd ed., B. Truelove, Ed.; Southern Weed Science Society; Auburn University, Auburn, Ala., 1977.

corn [2] = experiment: preemergence herbicidal activity on corn; format: in vivo, Zea mays var. Pioneer 3732; settings: Zea mays, pre-emergence, 0.3 Kg/Ha, after 12-17 days, read-out: PREEMERGENCE HERBICIDAL ACTIVITY (% CONTROL) CRN
Experimental: as §1, §2, §3, §4, §5

blackgrass [3] = experiment: postemergence herbicidal activity on blackgrass; format: in vivo, Aloepecurus myosuroides; settings: Alopecurus myosuroides, post-emergence, 0.3 Kg/Ha, after 12-17 days, read-out: POSTEMERGENCE HERBICIDAL ACTIVITY (% CONTROL) ALOMY
Experimental: as §1, §2, §3, §4, §5

corn [4] = experiment: postemergence herbicidal activity on corn; format: in vivo, Zea mays var. Pioneer 3732; settings: Zea mays, post-emergence, 0.3 Kg/Ha, after 12-17 days, read-out: POSTEMERGENCE HERBICIDAL ACTIVITY (% CONTROL) CRN
Experimental: as §1, §2, §3, §4, §5

chickweed [5] = experiment: preemergence herbicidal activity on chickweed; format: in vivo; settings: Stellaria media, pre-emergence, 0.3 Kg/Ha, after 12-17 days, read-out: PREEMERGENCE HERBICIDAL ACTIVITY (% CONTROL) STEME
Experimental: as §1, §2, §3, §4, §5

soybean [6] = experiment: postemergence herbicidal activity on soybean; format: in vivo, Glycine max var. Winchester; settings: Glycine max, post-emergence, 0.3 Kg/Ha, after 12-17 days, read-out: POSTEMERGENCE HERBICIDAL ACTIVITY (% CONTROL) SOY
Experimental: as §1, §2, §3, §4, §5

velvetleaf [7] = experiment: postemergence herbicidal activity on velvetleaf; format: in vivo; settings: Abutilon theophrasti, post-emergence, 0.3 Kg/Ha, after 12-17 days, read-out: POSTEMERGENCE HERBICIDAL ACTIVITY (% CONTROL) ABUTH
Experimental: as §1, §2, §3, §4, §5

johnsongrass [8] = experiment: postemergence herbicidal activity on johnsongrass; format: in vivo; settings: Sorghum halepense, post-emergence, 0.3 Kg/Ha, after 12-17 days, read-out: POSTEMERGENCE HERBICIDAL ACTIVITY (% CONTROL) SORHA
Experimental: as §1, §2, §3, §4, §5

wheat [9] = experiment: preemergence herbicidal activity on wheat; format: in vivo, Triticum aestivum var. Lew; settings: Triticum aestivum, pre-emergence, 0.3 Kg/Ha, after 12-17 days, read-out: PREEMERGENCE HERBICIDAL ACTIVITY (% CONTROL) WHT
Experimental: as §1, §2, §3, §4, §5

cocklebur [10] = experiment: postemergence herbicidal activity on cocklebur; format: in vivo, Xanthium strumarium L.; settings: Xanthium strumarium, post-emergence, 0.3 Kg/Ha, after 12-17 days, read-out: POSTEMERGENCE HERBICIDAL ACTIVITY (% CONTROL) XANPE
Experimental: as §1, §2, §3, §4, §5

cocklebur [11] = experiment: preemergence herbicidal activity on cocklebur; format: in vivo, Xanthium strumarium L.; settings: Xanthium strumarium, pre-emergence, 0.3 Kg/Ha, after 12-17 days, read-out: PREEMERGENCE HERBICIDAL ACTIVITY (% CONTROL) XANPE
Experimental: as §1, §2, §3, §4, §5

velvetleaf [12] = experiment: preemergence herbicidal activity on velvetleaf; format: in vivo; settings: Abutilon theophrasti, pre-emergence, 0.3 Kg/Ha, after 12-17 days, read-out: PREEMERGENCE HERBICIDAL ACTIVITY (% CONTROL) ABUTH
Experimental: as §1, §2, §3, §4, §5

chickweed [13] = experiment: postemergence herbicidal activity on chickweed; format: in vivo; settings: Stellaria media, post-emergence, 0.3 Kg/Ha, after 12-17 days, read-out: POSTEMERGENCE HERBICIDAL ACTIVITY (% CONTROL) STEME
Experimental: as §1, §2, §3, §4, §5

soybean [14] = experiment: preemergence herbicidal activity on soybean; format: in vivo, Glycine max var. Winchester; settings: Glycine max, pre-emergence, 0.3 Kg/Ha, after 12-17 days, read-out: PREEMERGENCE HERBICIDAL ACTIVITY (% CONTROL) SOY
Experimental: as §1, §2, §3, §4, §5

morningglory [15] = experiment: preemergence herbicidal activity on morningglory; format: in vivo, Ipomea lacunosa or Ipomea hederacea; settings: Ipomoea, pre-emergence, 0.3 Kg/Ha, after 12-17 days, read-out: PREEMERGENCE HERBICIDAL ACTIVITY (% CONTROL) IPOSS
Experimental: as §1, §2, §3, §4, §5

green foxtail [16] = experiment: preemergence herbicidal activity on green foxtail; format: in vivo; settings: Setaria viridis, pre-emergence, 0.3 Kg/Ha, after 12-17 days, read-out: PREEMERGENCE HERBICIDAL ACTIVITY (% CONTROL) SETVI
Experimental: as §1, §2, §3, §4, §5

blackgrass [17] = experiment: preemergence herbicidal activity on blackgrass; format: in vivo, Aloepecurus myosuroides; settings: Alopecurus myosuroides, pre-emergence, 0.3 Kg/Ha, after 12-17 days, read-out: PREEMERGENCE HERBICIDAL ACTIVITY (% CONTROL) ALOMY
Experimental: as §1, §2, §3, §4, §5

wheat [18] = experiment: postemergence herbicidal activity on wheat; format: in vivo, Triticum aestivum var. Lew; settings: Triticum aestivum, post-emergence, 0.3 Kg/Ha, after 12-17 days, read-out: POSTEMERGENCE HERBICIDAL ACTIVITY (% CONTROL) WHT
Experimental: as §1, §2, §3, §4, §5

morningglory [19] = experiment: postemergence herbicidal activity on morningglory; format: in vivo, Ipomea lacunosa or Ipomea hederacea; settings: Ipomoea, post-emergence, 0.3 Kg/Ha, after 12-17 days, read-out: POSTEMERGENCE HERBICIDAL ACTIVITY (% CONTROL) IPOSS
Experimental: as §1, §2, §3, §4, §5

green foxtail [20] = experiment: postemergence herbicidal activity on green foxtail; format: in vivo; settings: Setaria viridis, post-emergence, 0.3 Kg/Ha, after 12-17 days, read-out: POSTEMERGENCE HERBICIDAL ACTIVITY (% CONTROL) SETVI
Experimental: as §1, §2, §3, §4, §5

Row | Compound | activity at 300 g/ha (johnsongrass [1]) | activity at 300 g/ha (corn [2]) | activity at 300 g/ha (blackgrass [3]) | activity at 300 g/ha (corn [4]) | activity at 300 g/ha (chickweed [5]) | activity at 300 g/ha (soybean [6]) | activity at 300 g/ha (velvetleaf [7]) | activity at 300 g/ha (johnsongrass [8]) | activity at 300 g/ha (wheat [9]) | activity at 300 g/ha (cocklebur [10]) | activity at 300 g/ha (cocklebur [11]) | activity at 300 g/ha (velvetleaf [12]) | activity at 300 g/ha (chickweed [13]) | activity at 300 g/ha (soybean [14]) | activity at 300 g/ha (morningglory [15]) | activity at 300 g/ha (green foxtail [16]) | activity at 300 g/ha (blackgrass [17]) | activity at 300 g/ha (wheat [18]) | activity at 300 g/ha (morningglory [19]) | activity at 300 g/ha (green foxtail [20])
1 | Cn1c(C(F)(F)F)cc(=O)n(-c2cc(CC(Cl)C(C)(C)O)c(Cl)cc2F)c1=O (stereo not drawn) [Compound 1, 2-CHLORO-3-METHYL-1-[2-CHLORO-4-FLUORO-5-[1-METHYL-6-TRIFLUOROMETHYL-2,4(1H,3H)-PYRIMIDINDION-3-YL]PHENYL]BUTAN-3-OL] | 95% | 95% | 80% | 100% | 100% | 100% | 100% | 100% | 80% | 100% | 95% | 100% | 100% | 100% | 100% | 100% | 80% | 90% | 100% | 100%
2 | Cn1nc(-c2cc(CC(Cl)C(C)(C)O)c(Cl)cc2F)c(Cl)c1OC(F)F (stereo not drawn) [Compound 3] | 75% | 40% |  | 70% | 100% | 95% | 100% | 60% | 30% | 100% | 100% | 100% | 100% | 60% | 100% | 100% |  | 40% | 100% | 100%
3 | CC(=O)OC(C)(C)C(Cl)Cc1cc(-n2c(=O)cc(C(F)(F)F)n(C)c2=O)c(F)cc1Cl (stereo not drawn) [Compound 16, 2-CHLORO-3-METHYL-1-[2-CHLORO-4-FLUORO-5-[1-METHYL-6-TRIFLUOROMETHYL-2,4(1H,3H)-PYRIMIDINDION-3-YL]PHENYL]BUTAN-3-YL ACETATE] | 100% | 90% | 100% | 90% | 100% | 95% | 100% | 100% | 70% | 100% | 100% | 100% | 100% | 100% | 100% | 100% |  | 60% | 90% | 100%
4 | CC(=O)OC(C)(C)C(Cl)Cc1cc(-n2nc(C)n(C(F)F)c2=O)c(F)cc1Cl (stereo not drawn) [Compound 17] | 100% | 85% | 80% | 90% | 95% | 80% | 100% | 100% | 50% | 60% | 80% | 100% | 100% | 70% | 100% | 80% |  | 50% | 100% | 100%
5 | CC(=O)OC(C)(C)C(Cl)Cc1cc(-c2nn(C)c(OC(F)F)c2Cl)c(F)cc1Cl (stereo not drawn) [Compound 18] | 80% | 20% | 80% | 75% | 100% | 80% | 100% | 80% | 20% | 90% | 60% | 100% | 100% | 70% | 100% | 100% |  | 40% | 100% | 100%
6 | Cc1nn(-c2cc(CC(Cl)CO)c(Cl)cc2F)c(=O)n1C(F)F (stereo not drawn) [Compound 24] | 65% | 70% | 30% | 80% |  | 80% | 100% | 80% | 50% | 100% | 95% | 100% | 10% | 30% | 100% | 100% | 10% | 30% | 100% | 80%
